Experimental data from ChEMBL document CHEMBL5042486, “Discovery and Preclinical Characterization of BIIB091, a Reversible, Selective BTK Inhibitor for the Treatment of Multiple Sclerosis” (J Med Chem, 2022).
The source made the active and inactive calls. The rule behind the calls is not given here.

How the values were obtained:
[1] = Protein binding in human plasma assessed as unbound fraction at 2 uM by rapid equilibrium dialysis method; format: ADME, cell-free
[2] = Kinetic solubility of the compound at pH 1.5 by shake flask method; format: physicochemical; conditions: buffer, read-out: Kinetic_solubility
[3] = Clearance in Sprague-Dawley rat assessed as hepatic blood flow at 1 mg/kg, iv; format: ADME, organism-based, Liver; conditions: in vivo
Aurora kinase A = Aurora kinase A (Homo sapiens, UniProt O14965); assay: Binding affinity to wild-type human partial length AURKA (E122 to K401 residues) expressed in mammalian expression system by Kinomescan method
[4] = target: Cyclin-dependent kinase-like 2 (Homo sapiens, UniProt Q92772); assay: Binding affinity to wild-type human partial length CDKL2 (M1 to D327 residues) expressed in bacterial expression system by Kinomescan method
[5] = target: Mitogen-activated protein kinase kinase kinase 13 (Homo sapiens, UniProt O43283); assay: Binding affinity to wild-type human full length LZK (M1 to W966 residues) expressed in mammalian expression system by Kinomescan method
[6] = target: Dual specificity mitogen-activated protein kinase kinase 2 (Homo sapiens, UniProt P36507); assay: Binding affinity to wild-type human full length MEK2 (M1 to V400 residues) expressed in mammalian expression system by Kinomescan method
[7] = target: Phosphatidylinositol 4-phosphate 5-kinase type-1 gamma (Homo sapiens, UniProt O60331); assay: Binding affinity to wild-type human partial length PIP5K1C (M1 to T668 residues) expressed in mammalian expression system by Kinomescan method
[8] = target: Proto-oncogene tyrosine-protein kinase Src (Homo sapiens, UniProt P12931); assay: Binding affinity to wild-type human partial length SRC (L240 to L536 residues) expressed in bacterial expression system by Kinomescan method
[9] = target: Tyrosine-protein kinase Tec (Homo sapiens, UniProt P42680); assay: Binding affinity to wild-type human partial length TEC (L341 to D620 residues) expressed in bacterial expression system by Kinomescan method
[10] = Clearance in cynomolgus monkey assessed as hepatic blood flow at 1 mg/kg, iv; format: ADME, organism-based, Macaca fascicularis, Liver; conditions: in vivo
[11] = Volume of distribution at steady state in Spargue-Dawley rat at 5 mg/kg, po; format: ADME, organism-based; conditions: in vivo
[12] = Volume of distribution at steady state in cynomolgus monkey at 5 mg/kg, po; format: ADME, organism-based, Macaca fascicularis; conditions: in vivo
[13] = Volume of distribution at steady state in Beagle dog at 5 mg/kg, po; format: ADME, organism-based, Canis lupus familiaris; conditions: in vivo
[14] = target: Voltage-dependent L-type calcium channel subunit alpha-1C (Homo sapiens, UniProt Q13936); assay: Inhibition of human Cav1.2; format: toxicity
[15] = Hepatotoxicity in rat primary cells assessed as change in ATP level for 10 days; format: toxicity, cell-based, Hepatocyte; conditions: hepatocytes, 240 h, time 10 day
[16] = Hepatotoxicity in rat primary cells assessed as change in GSH level for 10 days; format: toxicity, cell-based, Hepatocyte; conditions: hepatocytes, 240 h, time 10 day
[17] = Hepatotoxicity in rat primary cells assessed as change in urea level for 10 days; format: toxicity, cell-based, Hepatocyte; conditions: hepatocytes, 240 h, time 10 day
[18] = Hepatotoxicity in rat primary cells assessed as change in albumin level for 10 days; format: toxicity, cell-based, Hepatocyte; conditions: hepatocytes, 240 h, time 10 day
[19] = In vivo toxicity in Sprague-Dawley rat assessed as compound related toxicity at 500 mg/kg after 28 days; format: organism-based; conditions: 672 h, time 28 day
Cynomolgus monkey [20] = assay: In vivo toxicity in cynomolgus monkey assessed as compound related toxicity at 250 mg/kg after 28 days; format: organism-based, Macaca fascicularis; conditions: 672 h, time 28 day
Cynomolgus monkey [21] = assay: In vivo toxicity in cynomolgus monkey assessed as compound related pathology at 250 mg/kg after 28 days; format: organism-based, Macaca fascicularis; conditions: 672 h, time 28 day
Cynomolgus monkey [22] = assay: In vivo toxicity in cynomolgus monkey assessed as compound related ECG findings at 250 mg/kg after 28 days; format: organism-based, Macaca fascicularis; conditions: 672 h, time 28 day
[23] = Dissociation constant, pKa of the compound; format: physicochemical
[24] = target: Early activation antigen CD69 (Homo sapiens, UniProt Q07108); assay: Inhibition of CD69 (unknown origin) assessed as reduction in BCR mediated B cell activation; format: cell-based
CD63 antigen = CD63 antigen (Homo sapiens, UniProt P08962); assay: Inhibition of CD63 (unknown origin) assessed as FcepsilonR induced basophil activation
[25] = target: Toll-like receptor 9 (Homo sapiens) (UniProt Q9NR96); assay: Inhibition of TLR9 in CpG-B stimulated human PBMC at >10 uM; format: cell-based; conditions: dose microM >10
[26] = target: Tumor necrosis factor receptor superfamily member 5 (Homo sapiens) (UniProt P25942); assay: Inhibition of CD40 in IL-4/[…] stimulated human PBMC at >10 uM; format: cell-based; conditions: dose microM >10
[27] = In vivo inhibition of BTK-dependent B cell activation in C57BL/6 mouse immunized with NP-Ficoll assessed as reduction in anti-NP IgM antibody titer at 30 mg/kg, po BID dosed for 10 days; format: functional; parameters: scale not given: the % may be the effect or the level left; conditions: time 10 day
[28] = In vivo inhibition of BTK-dependent B cell activation in C57BL/6 mouse immunized with NP-Ficoll assessed as reduction in anti-NP IgM antibody titer at 0.3 mg/kg, po BID dosed for 10 days; format: functional; parameters: scale not given: the % may be the effect or the level left; conditions: time 10 day
[29] = In vivo inhibition of BTK-dependent B cell activation in C57BL/6 mouse immunized with NP-Ficoll assessed as reduction in anti-NP IgM antibody titer at 0.03 mg/kg, po BID dosed for 10 days; format: functional; parameters: scale not given: the % may be the effect or the level left; conditions: time 10 day
[30] = Apparent permeability across apical to basolateral side in human Caco2 cells; format: ADME, cell-based; conditions: Caco-2
[31] = In vivo toxicity in Sprague-Dawley rat assessed as NOAEL after 28 days; format: organism-based; conditions: time 28 day
[32] = Apparent permeability across basolateral to apical side in human Caco2 cells; format: ADME, cell-based; conditions: Caco-2
Bile salt export pump = Bile salt export pump (Homo sapiens, UniProt O95342); assay: Inhibition of BSEP (unknown origin) at >30 uM
[33] = target: Broad substrate specificity ATP-binding cassette transporter ABCG2 (Homo sapiens, UniProt Q9UNQ0); assay: Inhibition of BCRP (unknown origin) at >30 uM
[34] = Protein binding in monkey plasma assessed as unbound fraction; format: ADME, cell-free, Macaca mulatta; conditions: rhesus monkey
Cytochrome P450 3A4 = Cytochrome P450 3A4 (Homo sapiens, UniProt P08684); assay: Inhibition of CYP3A4 in human liver microsomes at 10 to 50 uM; format: ADME; conditions: dose 10-50 µM
Cytochrome P450 2D6 = Cytochrome P450 2D6 (Homo sapiens, UniProt P10635); assay: Inhibition of CYP2D6 in human liver microsomes at 10 to 50 uM; format: ADME; conditions: dose 10-50 µM
Cytochrome P450 2C9 = Cytochrome P450 2C9 (Homo sapiens, UniProt P11712); assay: Inhibition of CYP2C9 in human liver microsomes at 10 to 50 uM; format: ADME; conditions: dose 10-50 µM
Cytochrome P450 2C19 = Cytochrome P450 2C19 (Homo sapiens, UniProt P33261); assay: Inhibition of CYP2C19 in human liver microsomes at 10 to 50 uM; format: ADME; conditions: dose 10-50 µM
Liver [35] = assay: Drugmetabolism in dog liver microsomes assessed as metabolite formation; format: ADME, Canis lupus familiaris, Microsome
[36] = Drugmetabolism in cynomolgus monkey liver microsomes assessed as metabolite formation; format: ADME, Macaca fascicularis, Microsome
Liver [37] = assay: Drugmetabolism in human liver microsomes assessed as metabolite formation; format: ADME, Microsome
[38] = Drugmetabolism in mouse hepatocytes assessed as metabolite formation; format: ADME, cell-based, Hepatocyte
[39] = Drugmetabolism in dog hepatocytes assessed as metabolite formation; format: ADME, cell-based, Canis lupus familiaris, Hepatocyte
[40] = Drugmetabolism in cynomolgus monkey hepatocytes assessed as metabolite formation; format: ADME, cell-based, Macaca fascicularis, Hepatocyte

Tumor necrosis factor receptor superfamily member 5 (Homo sapiens), sequence (P25942 whole entry): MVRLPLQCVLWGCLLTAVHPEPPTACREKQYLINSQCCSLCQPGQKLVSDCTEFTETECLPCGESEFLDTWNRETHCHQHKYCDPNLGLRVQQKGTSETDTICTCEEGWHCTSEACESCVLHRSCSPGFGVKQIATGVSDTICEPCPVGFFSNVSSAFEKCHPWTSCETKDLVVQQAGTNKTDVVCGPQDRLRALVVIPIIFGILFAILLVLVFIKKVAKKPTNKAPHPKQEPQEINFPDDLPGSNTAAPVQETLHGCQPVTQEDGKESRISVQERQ
Proto-oncogene tyrosine-protein kinase Src, sequence (P12931 2-536 limits assumed): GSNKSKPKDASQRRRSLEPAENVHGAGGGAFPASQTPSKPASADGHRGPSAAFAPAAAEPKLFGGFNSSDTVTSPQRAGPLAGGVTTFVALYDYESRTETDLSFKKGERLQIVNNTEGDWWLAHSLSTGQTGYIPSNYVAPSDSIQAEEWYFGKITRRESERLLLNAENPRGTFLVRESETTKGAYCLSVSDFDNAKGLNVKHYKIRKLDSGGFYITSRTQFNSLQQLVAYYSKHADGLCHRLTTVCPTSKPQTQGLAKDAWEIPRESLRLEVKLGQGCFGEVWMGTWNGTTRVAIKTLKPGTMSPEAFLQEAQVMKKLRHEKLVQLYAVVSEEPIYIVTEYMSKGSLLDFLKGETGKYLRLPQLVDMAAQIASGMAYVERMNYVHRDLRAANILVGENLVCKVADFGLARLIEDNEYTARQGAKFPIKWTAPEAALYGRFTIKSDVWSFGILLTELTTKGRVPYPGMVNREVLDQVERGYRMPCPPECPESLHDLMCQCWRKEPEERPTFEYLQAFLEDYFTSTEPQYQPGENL
Voltage-dependent L-type calcium channel subunit alpha-1C, sequence (Q13936 whole entry): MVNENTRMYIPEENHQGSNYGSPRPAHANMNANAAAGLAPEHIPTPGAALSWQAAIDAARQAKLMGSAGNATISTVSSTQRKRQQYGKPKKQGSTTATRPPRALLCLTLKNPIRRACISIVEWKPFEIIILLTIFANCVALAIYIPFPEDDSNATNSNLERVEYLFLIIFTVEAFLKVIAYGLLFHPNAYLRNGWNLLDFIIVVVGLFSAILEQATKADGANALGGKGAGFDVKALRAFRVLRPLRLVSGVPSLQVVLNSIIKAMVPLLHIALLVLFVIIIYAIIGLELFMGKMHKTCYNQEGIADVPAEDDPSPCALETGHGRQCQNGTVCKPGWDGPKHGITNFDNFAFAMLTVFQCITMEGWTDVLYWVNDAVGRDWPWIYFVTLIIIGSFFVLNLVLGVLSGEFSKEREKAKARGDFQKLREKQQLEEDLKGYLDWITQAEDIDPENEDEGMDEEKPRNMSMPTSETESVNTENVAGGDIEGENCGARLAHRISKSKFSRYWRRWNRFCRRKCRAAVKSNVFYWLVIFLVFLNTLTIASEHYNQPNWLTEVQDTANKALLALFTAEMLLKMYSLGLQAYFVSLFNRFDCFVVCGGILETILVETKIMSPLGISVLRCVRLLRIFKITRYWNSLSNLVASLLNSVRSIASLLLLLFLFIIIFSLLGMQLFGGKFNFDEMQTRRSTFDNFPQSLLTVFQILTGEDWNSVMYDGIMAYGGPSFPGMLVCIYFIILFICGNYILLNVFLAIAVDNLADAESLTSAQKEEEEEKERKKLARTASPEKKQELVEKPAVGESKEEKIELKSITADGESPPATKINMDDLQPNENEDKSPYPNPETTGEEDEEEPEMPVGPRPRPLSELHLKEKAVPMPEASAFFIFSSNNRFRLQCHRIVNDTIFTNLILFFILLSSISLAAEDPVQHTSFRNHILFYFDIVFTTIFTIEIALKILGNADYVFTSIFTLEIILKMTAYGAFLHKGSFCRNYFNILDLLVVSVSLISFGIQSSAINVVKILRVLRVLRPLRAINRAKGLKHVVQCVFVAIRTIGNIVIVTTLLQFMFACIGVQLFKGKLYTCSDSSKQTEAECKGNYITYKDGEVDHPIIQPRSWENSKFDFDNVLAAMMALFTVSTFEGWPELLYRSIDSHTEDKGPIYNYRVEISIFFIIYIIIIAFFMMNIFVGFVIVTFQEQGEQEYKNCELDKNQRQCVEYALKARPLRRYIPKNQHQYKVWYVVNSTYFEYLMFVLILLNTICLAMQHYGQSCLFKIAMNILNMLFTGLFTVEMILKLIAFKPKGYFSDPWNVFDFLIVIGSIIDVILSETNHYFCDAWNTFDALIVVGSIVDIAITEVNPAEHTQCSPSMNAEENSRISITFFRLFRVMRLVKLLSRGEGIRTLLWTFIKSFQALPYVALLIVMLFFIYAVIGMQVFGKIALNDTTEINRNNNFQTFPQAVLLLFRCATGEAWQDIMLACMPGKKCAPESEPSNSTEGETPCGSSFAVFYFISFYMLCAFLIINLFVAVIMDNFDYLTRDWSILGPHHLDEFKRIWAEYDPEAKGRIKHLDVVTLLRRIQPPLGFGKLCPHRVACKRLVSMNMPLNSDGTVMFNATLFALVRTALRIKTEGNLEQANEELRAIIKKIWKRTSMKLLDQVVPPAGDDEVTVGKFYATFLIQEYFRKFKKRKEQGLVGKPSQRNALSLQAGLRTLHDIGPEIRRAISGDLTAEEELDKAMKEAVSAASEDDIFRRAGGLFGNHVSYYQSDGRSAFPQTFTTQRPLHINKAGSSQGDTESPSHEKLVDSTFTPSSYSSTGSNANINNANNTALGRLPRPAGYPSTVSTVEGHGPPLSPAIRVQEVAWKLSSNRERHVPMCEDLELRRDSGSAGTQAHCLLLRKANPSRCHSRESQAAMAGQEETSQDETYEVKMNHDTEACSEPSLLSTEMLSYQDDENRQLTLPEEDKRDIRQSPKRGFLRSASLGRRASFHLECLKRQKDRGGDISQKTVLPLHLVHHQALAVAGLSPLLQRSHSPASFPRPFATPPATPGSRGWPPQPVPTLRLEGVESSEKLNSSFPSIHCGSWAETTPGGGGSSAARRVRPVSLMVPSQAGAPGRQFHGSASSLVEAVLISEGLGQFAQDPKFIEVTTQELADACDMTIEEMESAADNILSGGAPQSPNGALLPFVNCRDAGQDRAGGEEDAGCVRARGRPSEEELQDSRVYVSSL
Toll-like receptor 9 (Homo sapiens), sequence (Q9NR96 whole entry): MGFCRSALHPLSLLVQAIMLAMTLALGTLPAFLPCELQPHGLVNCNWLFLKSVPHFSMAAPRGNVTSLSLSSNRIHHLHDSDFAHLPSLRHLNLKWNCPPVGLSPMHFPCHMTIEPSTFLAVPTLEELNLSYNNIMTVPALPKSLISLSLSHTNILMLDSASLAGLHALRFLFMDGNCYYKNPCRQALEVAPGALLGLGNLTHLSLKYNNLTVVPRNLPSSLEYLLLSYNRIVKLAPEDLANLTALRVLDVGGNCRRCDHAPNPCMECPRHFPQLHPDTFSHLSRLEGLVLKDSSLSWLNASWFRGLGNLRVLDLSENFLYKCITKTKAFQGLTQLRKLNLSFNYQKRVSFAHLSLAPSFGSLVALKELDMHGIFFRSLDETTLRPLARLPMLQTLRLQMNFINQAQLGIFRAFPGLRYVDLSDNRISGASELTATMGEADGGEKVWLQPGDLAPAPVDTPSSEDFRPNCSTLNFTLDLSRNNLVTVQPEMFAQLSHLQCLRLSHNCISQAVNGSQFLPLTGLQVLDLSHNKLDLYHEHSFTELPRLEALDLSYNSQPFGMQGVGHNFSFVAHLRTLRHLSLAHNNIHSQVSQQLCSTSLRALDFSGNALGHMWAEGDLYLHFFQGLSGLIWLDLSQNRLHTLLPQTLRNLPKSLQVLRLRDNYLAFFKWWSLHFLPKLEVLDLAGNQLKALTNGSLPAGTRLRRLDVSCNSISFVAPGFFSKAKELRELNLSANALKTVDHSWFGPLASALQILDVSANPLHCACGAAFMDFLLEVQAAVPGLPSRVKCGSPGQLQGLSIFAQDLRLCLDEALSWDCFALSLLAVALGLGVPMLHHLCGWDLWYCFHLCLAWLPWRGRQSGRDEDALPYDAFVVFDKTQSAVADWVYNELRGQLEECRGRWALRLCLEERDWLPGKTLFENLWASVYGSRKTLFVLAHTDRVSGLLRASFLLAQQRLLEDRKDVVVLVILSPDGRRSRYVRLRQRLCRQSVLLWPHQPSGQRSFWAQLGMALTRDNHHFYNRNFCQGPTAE
Cytochrome P450 2C9, sequence (P11712 whole entry): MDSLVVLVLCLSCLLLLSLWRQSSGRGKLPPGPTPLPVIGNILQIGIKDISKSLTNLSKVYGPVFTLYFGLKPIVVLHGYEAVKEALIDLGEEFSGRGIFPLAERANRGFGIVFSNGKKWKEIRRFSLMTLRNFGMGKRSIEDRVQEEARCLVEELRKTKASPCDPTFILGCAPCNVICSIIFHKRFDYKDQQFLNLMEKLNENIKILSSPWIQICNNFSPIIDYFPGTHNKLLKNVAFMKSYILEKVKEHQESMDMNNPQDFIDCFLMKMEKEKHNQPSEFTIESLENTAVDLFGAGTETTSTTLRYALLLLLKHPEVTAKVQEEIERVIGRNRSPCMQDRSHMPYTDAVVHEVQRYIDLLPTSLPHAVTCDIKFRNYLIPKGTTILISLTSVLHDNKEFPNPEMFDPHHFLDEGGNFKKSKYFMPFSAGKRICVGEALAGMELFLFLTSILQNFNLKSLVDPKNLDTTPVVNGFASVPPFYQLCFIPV
Cytochrome P450 3A4, sequence (P08684 whole entry): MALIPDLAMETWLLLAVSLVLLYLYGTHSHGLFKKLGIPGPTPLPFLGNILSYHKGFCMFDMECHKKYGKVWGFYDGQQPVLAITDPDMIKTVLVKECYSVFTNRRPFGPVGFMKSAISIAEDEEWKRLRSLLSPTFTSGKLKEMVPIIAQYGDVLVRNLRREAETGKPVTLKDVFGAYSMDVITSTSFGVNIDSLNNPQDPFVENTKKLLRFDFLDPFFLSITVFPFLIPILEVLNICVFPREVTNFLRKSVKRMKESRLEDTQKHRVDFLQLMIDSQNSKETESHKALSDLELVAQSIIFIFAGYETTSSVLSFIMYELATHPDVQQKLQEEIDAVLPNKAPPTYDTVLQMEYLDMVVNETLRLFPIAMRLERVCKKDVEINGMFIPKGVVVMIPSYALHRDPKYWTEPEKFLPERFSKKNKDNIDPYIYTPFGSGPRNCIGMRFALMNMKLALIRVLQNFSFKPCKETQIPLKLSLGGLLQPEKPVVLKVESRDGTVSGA

Cn1cc(Nc2nccc(-c3ccc4c(c3)CN(C3COC3)CC[C@H]4NC(=O)c3cn(C(C)(C)C)nn3)n2)cn1 [BIIB-091]
fraction unbound at 2 µM [1]: 0.26
solubility kinetic [2]: > 50 µg/mL
QH [3]: 22%
Kd (Aurora kinase A): 660 nM
Kd [4]: 240 nM
Kd [5]: > 3000 nM
Kd [6]: 200 nM
Kd [7]: 420 nM
Kd [8]: 320 nM
Kd [9]: 240 nM
QH [10]: 44%
Vdss [11]: 0.4 L/kg
Vdss [12]: 0.7 L/kg
Vdss [13]: 1.7 L/kg
IC50 [14]: > 25000 nM
Activity [15]: Non-Toxic
Activity [16]: Non-Toxic
Activity [17]: Non-Toxic
Activity [18]: Non-Toxic
Activity [19]: Non-Toxic
Activity (Cynomolgus monkey [20]): Non-Toxic
Activity (Cynomolgus monkey [21]): Non-Toxic
Activity (Cynomolgus monkey [22]): Non-Toxic
pKa [23]: 2.8
IC50 [24]: 71 nM
IC50 (CD63 antigen): 82 nM
inhibition [25]: inactive
inhibition [26]: inactive
Activity [27]: 88%
Activity [28]: 59%
Activity [29]: 34%
Papp A→B [30]: 1.78 ×10⁻⁶ cm/s
NOAEL at 672 h [31]: 500 mg/kg
Papp B→A [32]: 37.6 ×10⁻⁶ cm/s
inhibition (INH) (Bile salt export pump): Not Active
inhibition (INH) [33]: Not Active
fraction unbound [34]: 0.19
inhibition (INH) (Cytochrome P450 3A4): Not Active
inhibition (INH) (Cytochrome P450 2D6): Not Active
inhibition (INH) (Cytochrome P450 2C9): Not Active
inhibition (INH) (Cytochrome P450 2C19): Not Active
Drug metabolism (Liver [35]): Metabolite_Notdetected
Drug metabolism [36]: Metabolite_Notdetected
Drug metabolism (Liver [37]): Metabolite_Notdetected
Drug metabolism [38]: Metabolite_Notdetected
Drug metabolism [39]: Metabolite_Notdetected
Drug metabolism [40]: Metabolite_Notdetected
